Results: patent US11142515B2, “Pyrazolyl-ureas as kinase inhibitors” (RESPIVERT LIMITED, priority 2014, dated 2021)

Experiments:
[1] = system: sputum macrophages from COPD patients; assay: Cytokine production in LPS-treated sputum macrophages from COPD patients; assay type: cell-based, human
Description: Patients with COPD inhaled a nebulised solution of 3% (w/v) hypertonic saline using an ultrasonic nebuliser (Devilbiss, Carthage, Mo.) with tidal breathing for 5 min. This procedure was repeated a maximum of three times until enough sputum was obtained. The sputum samples were homogenized and mixed vigorously using a vortex mixer in 0.02% v/v dithiothreitol (DTT) solution. The samples were re-suspended in PBS (40 mL) followed by centrifugation at 1500 rpm at 4° C. for 10 min to obtain sputum cell pellets. The pellets were washed with PBS (40 mL). The sputum cells were then re-suspended in 4 mL macrophage serum-free medium (macrophage-SFM, Life technologies, containing 20 U/mL penicillin, 0.02 mg/mL streptomycin and 5 μg/mL amphotericin B) and seeded on high bound 96-well plate, followed by incubation for 1 h at 37° C. and at 5% CO2 to allow the macrophages to attach to the bottom of the plate. The cells on the plate were washed with fresh macrophage-SFM (200 μL/well) to remove neutrophils and other contaminated cells. The adherent cells (mainly sputum macrophages) on the plate were used for further analysis. Sputum inductions were conducted in Quintiles Drug Research Unit at Guys Hospital and ethics approval and written informed consent was obtained by Quintiles.
Where appropriate, 1 μL of a solution containing either the test compound or reference article at the stated concentrations (either 0.1 μg/mL, 0.01 μg/mL, or 0.001 μg/mL) or alternatively 1 μL of DMSO as the vehicle control was added to each well (200 μL in media) and the cells were incubated for 2 h. The cells were stimulated with LPS solution (50 μL, final concentration: 1 μg/mL) and incubated for 18 h at 37° C. and 5% CO2. The supernatant was then collected and kept at −80° C. Suitable luminex kits were used to measure the selected analytes. After thawing the supernatant, the magnetic antibody beads were multiplexed and incubated in a 96-well plate with standard, background solution or the appropriate volume of sample overnight with shaking at 4° C. After washing twice with 200 μL of wash buffer provided by the kit per well using a magnetic plate washer, the beads were incubated for 1 h at RT with the biotin conjugated antibody solution provided by the kit with shaking. Streptavidin solution was added for 30 min with shaking at RT. After washing with 200 μL wash buffer per well, the beads were resuspended in sheath fluid (150 μL) and analyzed immediately. The level of each analyte in the supernatant was calculated using Xcel Fit software with a 4 or 5-parameter equation using each standard curve. The inhibitions of each cytokine production were calculated at each concentration by comparison with vehicle control.

CXCL1 (KC) in BALF = assay: Cigarette smoke model: CXCL1 (KC) in BALF; assay type: in vivo, A/J mice; conditions: mice; for CXCL1 in BALF / CXCL1 in BALF, % inhibition: tobacco smoke
Description: (§1) A/J mice (males, 5 weeks old) were exposed to cigarette smoke (4% cigarette smoke, diluted with air) for 30 min/day for 11 days using a Tobacco Smoke Inhalation Experiment System for small animals (Model SIS-CS; Sibata Scientific Technology, Tokyo, Japan). Test substances were administered intra-nasally (35 μL of solution in 10% DMSO/PBS) once daily for 3 days after the final cigarette smoke exposure. At 12 h after the last […], each of the animals was anesthetized, the trachea cannulated and bronchoalveolar lavage fluid (BALF) was collected. The numbers of alveolar macrophages and neutrophils were determined by FACS analysis (EPICS® ALTRA II, Beckman Coulter, Inc., Fullerton, Calif., USA) using anti-mouse MOMA2 antibody (macrophage) or anti-mouse 7/4 antibody (neutrophil). BALF was centrifuged and the supernatant was collected. The level of keratinocyte chemoattractant (KC; CXCL1) in BALF was quantitated using a Quantikine® mouse KC ELISA kit (R&D systems, Inc., Minneapolis, Minn., USA).

[2] = system: alveolar macrophages and neutrophils in BALF; assay: Cigarette smoke model: macrophages and neutrophils in BALF; assay type: in vivo, A/J mice; conditions: mice; for Cell numbers in BALF, Macrophage / Cell numbers in BALF, Macrophage, % inhibition / Cell numbers in BALF, Neutrophil / Cell numbers in BALF, Neutrophil, % inhibition: tobacco smoke
Description: as §1, with “Test substances were administered intra-nasally (35 μL of solution in 10% DMSO/PBS) once daily for 3 days after the final cigarette smoke exposure.” left out

PBMCs (mitosis) = assay: Cell mitosis assay in PHA-treated PBMCs; assay type: cell-based, human
Description: Peripheral blood mononucleocytes (PBMCs) from healthy subjects were separated from whole blood (Quintiles, London, UK) using a density gradient (Histopaquee-1077, Sigma-Aldrich, Poole, UK). The PBMCs (3 million cells per sample) were subsequently treated with 2% PHA (Sigma-Aldrich, Poole, UK) for 48 h, followed by a 20 h exposure to varying concentrations of test compounds. At 2 h before collection, PBMCs were treated with demecolcine (0.1 μg/mL; Life Technologies, Paisley, UK,) to arrest cells in metaphase.

Cc1ccc(-n2nc(C(C)(C)C)cc2NC(=O)Nc2ccc(OCc3ccnc(Nc4cnccn4)c3)c3ccccc23)cc1 [Example 1, 1-(3-(tert-Butyl)-1-(p-tolyl)-1H-pyrazol-5-yl)-3-(4-((2-(pyrazin-2-ylamino)pyridin-4-yl)methoxy)naphthalen-1-yl)urea]
inhibition of pro-inflammatory cytokine production in sputum macrophage compared with fluticasone propionate [1]: higher efficacy | IC50 ([1]; Homo sapiens, Macrophage, IL-6, sputum macrophages from COPD patients): 28 nM | inhibition at 0.1 µg/mL ([1]; Homo sapiens, Macrophage, read-out: E-max (maximum inhibition), IL-6 production in LPS-treated sputum macrophages): 60% | CXCL1 in BALF (CXCL1 (KC) in BALF; 0.07 μg/mouse): 14.47 pg/mL | CXCL1 in BALF, % inhibition (CXCL1 (KC) in BALF; 0.07 μg/mouse): 14.6% | CXCL1 in BALF (CXCL1 (KC) in BALF; 0.7 μg/mouse): 12.49 pg/mL | CXCL1 in BALF, % inhibition (CXCL1 (KC) in BALF; 0.7 μg/mouse): 34.9% | CXCL1 in BALF (CXCL1 (KC) in BALF; 7 μg/mouse): 9.03 pg/mL | CXCL1 in BALF, % inhibition (CXCL1 (KC) in BALF; 7 μg/mouse): 70.3% | tobacco smoke induced CXCL1 (KC) production in BALF (in words) (CXCL1 (KC) in BALF): inhibited | Cell numbers in BALF, Macrophage ([2]; 0.07 μg/mouse): 172700 mL⁻¹ | Cell numbers in BALF, Macrophage, % inhibition ([2]; 0.07 μg/mouse): 10.2% | Cell numbers in BALF, Neutrophil ([2]; 0.07 μg/mouse): 94200 mL⁻¹ | Cell numbers in BALF, Neutrophil, % inhibition ([2]; 0.07 μg/mouse): 13.7% | Cell numbers in BALF, Macrophage ([2]; 0.7 μg/mouse): 149200 mL⁻¹ | Cell numbers in BALF, Macrophage, % inhibition ([2]; 0.7 μg/mouse): 26.5% | Cell numbers in BALF, Neutrophil ([2]; 0.7 μg/mouse): 76600 mL⁻¹ | Cell numbers in BALF, Neutrophil, % inhibition ([2]; 0.7 μg/mouse): 33.7% | Cell numbers in BALF, Macrophage ([2]; 7 μg/mouse): 113400 mL⁻¹ | Cell numbers in BALF, Macrophage, % inhibition ([2]; 7 μg/mouse): 51.1% | Cell numbers in BALF, Neutrophil ([2]; 7 μg/mouse): 60400 mL⁻¹ | Cell numbers in BALF, Neutrophil, % inhibition ([2]; 7 μg/mouse): 52.0% | macrophage and neutrophil accumulation in BALF induced by cigarette smoke (in words) [2]: dose-dependent inhibition | impact on cell division (mitosis) compared with Reference Compound (PBMCs (mitosis)): markedly less activity | inhibition at 5 µg/mL (PBMCs (mitosis); Homo sapiens, PBMC, 5 μg/mL, PBMC, Table 5A, read-out: Mitosis Assay % Inhibition at 5 μg/mL in PBMC Cells): 29.9%
